Source: ChEMBL document CHEMBL3861975, “Discovery and Rational Design of Natural-Product-Derived 2-Phenyl-3,4-dihydro-2H-benzo[f]chromen-3-amine Analogs as Novel and Potent Dipeptidyl Peptidase 4 (DPP-4) Inhibitors for the Treatment of Type 2 Diabetes” (J Med Chem, 2016)
Active and inactive are the calls of the source. The rule behind the calls is not given here.

Columns and labels:
Mus musculus [1] = species on record: Mus musculus; settings: ICR, 5 mg/kg
Description: (§1) In-vivo inhibition of DPP4 in ICR mouse at 5 mg/kg, ip administered as single dose using Gly-Pro-AMC as substrate after 24 hrs post dose by continuous fluorometric assay

Mus musculus [2] = test: In-vivo inhibition of DPP4 in B6.V-Lep'ob/Lep'ob (ob/ob) mouse at 3 mg/kg, po administered as single dose using Gly-Pro-AMC as substrate after 24 hrs post dose by continuous fluorometric assay; assay type: functional, organism-based
[3] = Clearance in Sprague-Dawley rat at 1 mg/kg, iv by LC-MS/MS method; assay type: ADME, organism-based; settings: in vivo
[4] = Oral bioavailability in Sprague-Dawley rat at 2 mg/kg by LC-MS/MS method; assay type: ADME, organism-based; settings: in vivo
[5] = Mean residence time (0 to infinity) in Sprague-Dawley rat at 2 mg/kg, po by LC-MS/MS method; assay type: ADME, organism-based; settings: in vivo
[6] = Cmax in Sprague-Dawley rat at 2 mg/kg, po by LC-MS/MS method; assay type: ADME, organism-based; parameters: dose 2 mg/kg, route oral; settings: in vivo
[7] = Volume of distribution at steady state in Sprague-Dawley rat at 1 mg/kg, iv by LC-MS/MS method; assay type: ADME, organism-based; settings: in vivo, read-out: Vdss
[8] = AUC (0 to infinity) in Sprague-Dawley rat at 2 mg/kg, po by LC-MS/MS method; assay type: ADME, organism-based; parameters: dose 2 mg/kg, route oral, time infinity; settings: in vivo
[9] = AUC (0 to t) in Sprague-Dawley rat at 1 mg/kg, iv by LC-MS/MS method; assay type: ADME, organism-based; settings: in vivo
[10] = AUC (0 to t) in Sprague-Dawley rat at 2 mg/kg, po by LC-MS/MS method; assay type: ADME, organism-based; settings: in vivo
[11] = Half life in Sprague-Dawley rat at 1 mg/kg, iv by LC-MS/MS method; assay type: ADME, organism-based; settings: in vivo
[12] = Tmax in Sprague-Dawley rat at 2 mg/kg, po by LC-MS/MS method; assay type: ADME, organism-based; settings: in vivo
[13] = Half life in Sprague-Dawley rat at 2 mg/kg, po by LC-MS/MS method; assay type: ADME, organism-based; settings: in vivo
[14] = AUC (0 to infinity) in Sprague-Dawley rat at 1 mg/kg, iv by LC-MS/MS method; assay type: ADME, organism-based; parameters: dose 1 mg/kg, route intravenous, time infinity; settings: in vivo
[15] = Mean residence time (0 to infinity) in Sprague-Dawley rat at 1 mg/kg, iv by LC-MS/MS method; assay type: ADME, organism-based; settings: in vivo
Mus musculus [16] = species on record: Mus musculus; settings: 1 to 10 mg/kg
Mus musculus [17] = species on record: Mus musculus; test: animal or person; settings: ICR, ip, 24 h, read-out: INH
Description: as §1

Mus musculus [18] = species on record: Mus musculus; test: animal or person; settings: po, 24 h, read-out: INH
Mus musculus [19] = species on record: Mus musculus; test: animal or person; settings: po, 24 h, read-out: INH; remark: listed apart in the source
Mus musculus [20] = species on record: Mus musculus; test: animal or person; settings: po, 24 h, read-out: INH; remark: listed apart in the source
Mus musculus [21] = test: Improvement in glucose tolerance in ICR mouse at 1 to 10 mg/kg, po administered as single dose 60 mins before glucose challenge and measured 30 to 60 mins post glucose challenge by OGTT method; assay type: functional, organism-based

| Structure (SMILES) | clearance [3] | bioavailability [4] | MRT inf [5] | Cmax [6] | Vd [7] | AUC [8] | AUCt [9] | AUCt [10] | half-life [11] | Tmax [12] | half-life [13] | AUC [14] | MRT inf [15] | also measured |
| --- | --- | --- | --- | --- | --- | --- | --- | --- | --- | --- | --- | --- | --- | --- |
| CS(=O)(=O)n1cc2c(n1)CN([C@H]1CO[C@H](c3cc(F)ccc3F)[C@@H](N)C1)C2 | – | – | – | – | – | – | – | – | – | – | – | – | – | inhibition (Mus musculus [1]): Active; inhibition (Mus musculus [2]): Active |
| COc1cc2c3c(ccc2cc1S(C)(=O)=O)O[C@H](c1cc(F)c(F)cc1F)[C@@H](N)C3 | 0.667 mL/min/kg | 54.8% | 9.05 h | 2320 ng/mL | 0.63 L/kg | 26373.69 µg/L/h | 24208.7 µg/L/h | 26527.6 µg/L/h | 5.35 h | 4.67 h | 6.83 h | 25460.37 µg/L/h | 7.56 h | – |
| COc1cc2ccc3c(c2cc1OC)C[C@H](N)[C@@H](c1cc(F)c(F)cc1F)O3 | 5 mL/min/kg | 89.2% | 6.33 h | 502 ng/mL | 1.66 L/kg | 6091.31 µg/L/h | 3380.54 µg/L/h | 6052.89 µg/L/h | 3.87 h | 4.67 h | 3.05 h | 3415 µg/L/h | 4.87 h | inhibition (Mus musculus [16]): Dose-dependent effect; inhibition in vivo at 5 mg/kg (Mus musculus [17]): ≤ 80%; inhibition in vivo at 3 mg/kg (Mus musculus [18]): > 80%; inhibition in vivo at 10 mg/kg (Mus musculus [19]): > 80%; inhibition in vivo at 1 mg/kg (Mus musculus [20]): > 80%; Activity (Mus musculus [21]): Dose-dependent effect |
